Each structure is given as a SMILES string. Values after ≈ are worked out from the molar mass of the structure shown.

The results in this text go back to patent US10980853B2, “Process for preparing a crassocephalum crepidioides extract, extract prepared thereby and use of the extract” (DEVELOPMENT CENTER FOR BIOTECHNOLOGY, priority 2015, dated 2021).

The test system of assay [1] is MKN45 cells. Description: Combination with 5-FU or epirubicin in the inhibition of the growth of MKN45 cancer cells (combination index). It counts as cell-based. The conditions noted are these: CI<1 synergism, CI=1 addition, CI>1 antagonism. The protocol: (§1) MKN45 cells were incubated in RPMI-1640 medium (Sigma-Aldrich) containing 5% FBS (Gibco®). 6×10^3 cells were added to each well of a 96-well plate. Each well contained 180 μL of the above medium. The plate was incubated at 37° C. for 4 hours, and then 20 μL of various concentrations of each of the raw extract, Cr-E03 and dLGG were added to each well of the plate. Each concentration was tested with 3 replicates. After further incubation at 37° C. for 48 hours, the medium in the wells was removed, and 180 μL of 5% FBS medium containing 3-(4,5-dimethylthiazol-2-yl)-5-(3-carboxymethoxyphenyl)-2-(4-sulfophenyl)-2H-tetrazolium (MTS) were added to the wells. After reaction at 37° C. for 1 hour, the absorption values at 490 nm of the wells were measured by ELISA Reader (Model 680 Microplate Reader, Bio-Rad). IC25, IC50 and IC75 values of the raw extract, Cr-E03 and dLGG, respectively, were obtained by calculation using GraphPad Prism 5 software (GraphPad Software, Inc). IC25, IC50 and IC75 values are defined as the concentrations of the test sample which achieve 25%, 50% and 75%, respectively, of the maximal inhibition of the growth of MKN45 cells.
Combinations of different concentrations of each of the raw extract, Cr-E03 and dLGG with different concentrations of each of 5-fluorouracil (5-FU) and epirubicin were prepared. […]

The subject of assay [2] is MKN45 cells. Briefly: Inhibition of the growth of MKN45 cancer cells (MTS assay). It counts as cell-based. The method, then: as §1
For orientation: Formazan colour is commonly taken as a measure of viable cells.

Broadly, the IC25 is the concentration at which the effect reaches the 25% level. One may read the IC75 as the concentration needed for an effect of 75%. A high value points to a need for much substance. A word on the IC50: it is the concentration that inhibits the measured activity by half. High values mean lower potency, low ones higher potency. Consider `CC/C=C\C/C=C\C/C=C\CCCCCCCC(=O)OC[C@H](CO[C@@H]1O[C@H](CO)[C@H](O)[C@H](O)[C@H]1O)OC(=O)CCCCCCC/C=C\C/C=C\C/C=C\CC` [dLGG, 1,2-di-O-α-linolenoyl-3-O-β-galactopyranosyl-sn-glycerol], for which the “CI (combination index)” value in the assay with MKN45 cells [1] (combination with 5FU) and in the assay with MKN45 cells [1] (combination with Epi (epirubicin)) was 1.58 in each case. The compound further yielded a 25% effect concentration (IC25) in the assay on MKN45 cells [2] (48 hours, concentration achieving 25% of maximal growth inhibition) of 35.86 µg/mL (≈ 46.3 µM). Also, the IC75 with MKN45 cells [2] (48 hours, concentration achieving 75% of maximal growth inhibition) is 61.96 µg/mL (≈ 79.9 µM). Besides, the concentration for half-maximal inhibition (IC50) with MKN45 cells [2] (Homo sapiens, MKN-45, 48 hours, concentration achieving 50% of maximal growth inhibition) was 47.3 µg/mL (≈ 61 µM).
